Values quoted from earlier work in patent US20100196443A1, “USE OF CORDYCEPS SPECIES OR EXTRACT THEREOF IN THE EGG PRODUCTION” (A P NUTRIPHARM PTE. LTD., priority 2007, published 2010).

Test system: RNA cell
Details: Siev et al., 1969

## Nc1ncnc2c1ncn2[C@@H]1O[C@H](CO)C[C@H]1O [cordycepin, 3-deoxyadenosine]
  nucleolar RNA synthesis: can inhibit nucleolar RNA synthesis
